Data as given in the supplement of paper PMC10307832.

Key:
Experiment in all cases: relative viability (nuclei count vs DMSO), 5 days (fraction); higher = more cells survive
SW 1573 = system: SW 1573
Procedure, shortened: (§1)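 Dosing by pin tool came one day after lung cancer cell lines were seeded in 1536-well plates, using either one drug or a fixed anchor-drug dose plus five library-drug doses (not always all listed) in √10 steps. After 5 days, nuclei were counted on 4× images. Relative viability is treated-well nuclei count divided by vehicle-well nuclei count, and values are medians of duplicate plates.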

RERF-LC-KJ = system: RERF-LC-KJ
Procedure, shortened: as §1

SK-MES-1 = system: SK-MES-1
Procedure, shortened: as §1

EMC-BAC-2 = system: EMC-BAC-2
Procedure, shortened: as §1

NCI-H2347 = system: NCI-H2347
Procedure, shortened: as §1

HOP-62 = system: HOP-62
Procedure, shortened: as §1

NCI-H3122 = system: NCI-H3122
Procedure, shortened: as §1

NCI-H2009 = system: NCI-H2009
Procedure, shortened: as §1

NCI-H838 = system: NCI-H838
Procedure, shortened: as §1

NCI-H2228 = system: NCI-H2228
Procedure, shortened: as §1

SW 900 = system: SW 900
Procedure, shortened: as §1

LK-2 = system: LK-2
Procedure, shortened: as §1

EKVX = system: EKVX
Procedure, shortened: as §1

201T = system: 201T
Procedure, shortened: as §1

LC-2-ad = system: LC-2-ad
Procedure, shortened: as §1

ChaGo-K-1 = system: ChaGo-K-1
Procedure, shortened: as §1

HCC-78 = system: HCC-78
Procedure, shortened: as §1

UMC-11 = system: UMC-11
Procedure, shortened: as §1

NCI-H1355 = system: NCI-H1355
Procedure, shortened: as §1

PC-14 = system: PC-14
Procedure, shortened: as §1

HCC-44 = system: HCC-44
Procedure, shortened: as §1

How did the relative viability (SW 1573; first compound 0.2 µM) turn out when COCC1(CO)C(=O)C2CCN1CC2 (stereo not drawn) [PRIMA-1MET] + CC(=O)Nc1cccc(-n2c(=O)n(C3CC3)c(=O)c3c(Nc4ccc(I)cc4F)n(C)c(=O)c(C)c32)c1 [Trametinib] (partner 0.02 µM) was run?
The relative viability was 0.604.

What about the relative viability (SW 1573; first compound 0.6325 µM) of the same compound?
The relative viability was 0.54.

And the relative viability (SW 1573; first compound 2 µM)?
The relative viability was 0.409.

What about the relative viability (SW 1573; first compound 6.325 µM) of the same compound?
Its relative viability is 0.0772.

What about the relative viability (SW 1573; first compound 20 µM) of the same compound?
The relative viability was 0.024.

And the relative viability (RERF-LC-KJ; first compound 0.2 µM)?
The relative viability was 0.858.

And the relative viability (RERF-LC-KJ; first compound 0.6325 µM)?
The relative viability was 0.849.

What about the relative viability (RERF-LC-KJ; first compound 2 µM) of the same compound?
Its relative viability is 0.821.

And the relative viability (RERF-LC-KJ; first compound 6.325 µM)?
The relative viability was 0.951.

What about the relative viability (RERF-LC-KJ; first compound 20 µM) of the same compound?
The relative viability was 0.826.

What about the relative viability (SK-MES-1; first compound 0.2 µM) of the same compound?
Its relative viability is 0.609.

And the relative viability (SK-MES-1; first compound 0.6325 µM)?
The relative viability was 0.538.

And the relative viability (SK-MES-1; first compound 2 µM)?
The relative viability was 0.549.

What about the relative viability (SK-MES-1; first compound 6.325 µM) of the same compound?
The relative viability was 0.624.

What about the relative viability (SK-MES-1; first compound 20 µM) of the same compound?
Its relative viability is 0.592.

And the relative viability (EMC-BAC-2; first compound 0.2 µM)?
Its relative viability is 0.637.

And the relative viability (EMC-BAC-2; first compound 0.6325 µM)?
Its relative viability is 0.904.

And the relative viability (EMC-BAC-2; first compound 2 µM)?
Its relative viability is 0.907.

And the relative viability (EMC-BAC-2; first compound 6.325 µM)?
The relative viability was 0.734.

What about the relative viability (EMC-BAC-2; first compound 20 µM) of the same compound?
The relative viability was 0.91.

What about the relative viability (NCI-H2347; first compound 0.2 µM) of the same compound?
Its relative viability is 0.286.

And the relative viability (NCI-H2347; first compound 0.6325 µM)?
Its relative viability is 0.303.

And the relative viability (NCI-H2347; first compound 2 µM)?
The relative viability was 0.255.

And the relative viability (NCI-H2347; first compound 6.325 µM)?
Its relative viability is 0.225.

What about the relative viability (NCI-H2347; first compound 20 µM) of the same compound?
Its relative viability is 0.24.

And the relative viability (HOP-62; first compound 0.2 µM)?
The relative viability was 0.217.

And the relative viability (HOP-62; first compound 0.6325 µM)?
Its relative viability is 0.34.

What about the relative viability (HOP-62; first compound 2 µM) of the same compound?
The relative viability was 0.334.

And the relative viability (HOP-62; first compound 6.325 µM)?
Its relative viability is 0.344.

And the relative viability (HOP-62; first compound 20 µM)?
The relative viability was 0.364.

What about the relative viability (NCI-H3122; first compound 0.2 µM) of the same compound?
Its relative viability is 0.148.

And the relative viability (NCI-H3122; first compound 0.6325 µM)?
Its relative viability is 0.237.

And the relative viability (NCI-H3122; first compound 2 µM)?
The relative viability was 0.24.

And the relative viability (NCI-H3122; first compound 6.325 µM)?
Its relative viability is 0.17.

And the relative viability (NCI-H3122; first compound 20 µM)?
The relative viability was 0.191.

And the relative viability (NCI-H2009; first compound 0.2 µM)?
Its relative viability is 0.246.

And the relative viability (NCI-H2009; first compound 0.6325 µM)?
The relative viability was 0.306.

And the relative viability (NCI-H2009; first compound 2 µM)?
The relative viability was 0.237.

And the relative viability (NCI-H2009; first compound 6.325 µM)?
The relative viability was 0.252.

What about the relative viability (NCI-H2009; first compound 20 µM) of the same compound?
Its relative viability is 0.0028.

And the relative viability (NCI-H838; first compound 0.2 µM)?
Its relative viability is 0.55.

And the relative viability (NCI-H838; first compound 0.6325 µM)?
Its relative viability is 0.523.

And the relative viability (NCI-H838; first compound 2 µM)?
The relative viability was 0.416.

What about the relative viability (NCI-H838; first compound 6.325 µM) of the same compound?
The relative viability was 0.553.

What about the relative viability (NCI-H838; first compound 20 µM) of the same compound?
The relative viability was 0.557.

What about the relative viability (NCI-H2228; first compound 0.2 µM) of the same compound?
The relative viability was 0.197.

What about the relative viability (NCI-H2228; first compound 0.6325 µM) of the same compound?
Its relative viability is 0.371.

And the relative viability (NCI-H2228; first compound 2 µM)?
The relative viability was 0.822.

And the relative viability (NCI-H2228; first compound 6.325 µM)?
Its relative viability is 0.335.

And the relative viability (NCI-H2228; first compound 20 µM)?
The relative viability was 0.0574.

And the relative viability (SW 900; first compound 0.2 µM)?
Its relative viability is 0.615.

And the relative viability (SW 900; first compound 0.6325 µM)?
The relative viability was 0.765.

What about the relative viability (SW 900; first compound 6.325 µM) of the same compound?
The relative viability was 0.676.

And the relative viability (SW 900; first compound 20 µM)?
The relative viability was 0.131.

And the relative viability (LK-2; first compound 0.2 µM)?
Its relative viability is 0.477.

What about the relative viability (LK-2; first compound 0.6325 µM) of the same compound?
Its relative viability is 0.766.

What about the relative viability (LK-2; first compound 2 µM) of the same compound?
Its relative viability is 0.357.

What about the relative viability (LK-2; first compound 6.325 µM) of the same compound?
The relative viability was 0.455.

And the relative viability (LK-2; first compound 20 µM)?
The relative viability was 0.199.

What about the relative viability (EKVX; first compound 0.2 µM) of the same compound?
The relative viability was 0.344.

And the relative viability (EKVX; first compound 2 µM)?
Its relative viability is 0.283.

And the relative viability (EKVX; first compound 6.325 µM)?
The relative viability was 0.233.

What about the relative viability (EKVX; first compound 20 µM) of the same compound?
Its relative viability is 0.243.

What about the relative viability (201T; first compound 0.2 µM) of the same compound?
Its relative viability is 0.757.

And the relative viability (201T; first compound 0.6325 µM)?
Its relative viability is 0.74.

And the relative viability (201T; first compound 2 µM)?
Its relative viability is 0.684.

What about the relative viability (201T; first compound 6.325 µM) of the same compound?
The relative viability was 0.749.

And the relative viability (201T; first compound 20 µM)?
The relative viability was 0.721.

And the relative viability (LC-2-ad; first compound 0.2 µM)?
Its relative viability is 0.82.

What about the relative viability (LC-2-ad; first compound 0.6325 µM) of the same compound?
Its relative viability is 0.914.

And the relative viability (LC-2-ad; first compound 2 µM)?
The relative viability was 0.924.

And the relative viability (LC-2-ad; first compound 6.325 µM)?
Its relative viability is 0.878.

And the relative viability (LC-2-ad; first compound 20 µM)?
Its relative viability is 0.905.

And the relative viability (ChaGo-K-1; first compound 0.2 µM)?
Its relative viability is 0.996.

And the relative viability (ChaGo-K-1; first compound 0.6325 µM)?
Its relative viability is 0.735.

What about the relative viability (ChaGo-K-1; first compound 2 µM) of the same compound?
The relative viability was 0.849.

And the relative viability (ChaGo-K-1; first compound 6.325 µM)?
The relative viability was 0.891.

And the relative viability (ChaGo-K-1; first compound 20 µM)?
Its relative viability is 0.857.

What about the relative viability (HCC-78; first compound 0.2 µM) of the same compound?
The relative viability was 0.676.

What about the relative viability (HCC-78; first compound 0.6325 µM) of the same compound?
The relative viability was 0.708.

And the relative viability (HCC-78; first compound 2 µM)?
Its relative viability is 0.478.

What about the relative viability (HCC-78; first compound 6.325 µM) of the same compound?
Its relative viability is 0.596.

And the relative viability (HCC-78; first compound 20 µM)?
Its relative viability is 0.331.

What about the relative viability (UMC-11; first compound 0.2 µM) of the same compound?
The relative viability was 0.705.

What about the relative viability (UMC-11; first compound 0.6325 µM) of the same compound?
Its relative viability is 0.569.

What about the relative viability (UMC-11; first compound 2 µM) of the same compound?
The relative viability was 0.513.

What about the relative viability (UMC-11; first compound 6.325 µM) of the same compound?
The relative viability was 0.817.

And the relative viability (UMC-11; first compound 20 µM)?
The relative viability was 0.749.

What about the relative viability (NCI-H1355; first compound 0.2 µM) of the same compound?
The relative viability was 0.393.

What about the relative viability (NCI-H1355; first compound 0.6325 µM) of the same compound?
Its relative viability is 0.462.

What about the relative viability (NCI-H1355; first compound 2 µM) of the same compound?
The relative viability was 0.444.

What about the relative viability (NCI-H1355; first compound 6.325 µM) of the same compound?
The relative viability was 0.427.

What about the relative viability (NCI-H1355; first compound 20 µM) of the same compound?
Its relative viability is 0.428.

And the relative viability (PC-14; first compound 0.2 µM)?
The relative viability was 0.921.

What about the relative viability (PC-14; first compound 0.6325 µM) of the same compound?
Its relative viability is 0.618.

And the relative viability (PC-14; first compound 2 µM)?
The relative viability was 0.97.

What about the relative viability (PC-14; first compound 6.325 µM) of the same compound?
The relative viability was 0.693.

And the relative viability (PC-14; first compound 20 µM)?
Its relative viability is 0.615.

And the relative viability (HCC-44; first compound 0.2 µM)?
Its relative viability is 1.01.

What about the relative viability (HCC-44; first compound 0.6325 µM) of the same compound?
The relative viability was 0.951.

And the relative viability (HCC-44; first compound 2 µM)?
Its relative viability is 1.12.

What about the relative viability (HCC-44; first compound 6.325 µM) of the same compound?
Its relative viability is 1.07.

What about the relative viability (HCC-44; first compound 20 µM) of the same compound?
The relative viability was 1.03.
